Measurements taken from US20260028354A1, “TETRAHYDRONAPHTHALENE DERIVATIVES AS ESTROGEN RECEPTOR DEGRADERS” (REGENT OF THE UNIVERSITY OF MICHIGAN, priority 2022, published 2026).

Assay: Western blot analysis for "B" compounds
Assay type: cell-based
Conditions: read-out: Traditional Western Degradation Potency (DC50)
Method in brief: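 Compound-treated cells lysed in RIPA buffer with protease inhibitors; equal protein (BCA) run on 10% SDS-PAGE, transferred to PVDF and probed with target antibodies. Band intensities quantified by densitometry and normalized to GAPDH.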

| DC50 [nM] | Compound |
| --- | --- |
| > 100 | O=C1CCC(N2C(=O)c3cc4c(cc3C2=O)CN(CC(=O)N2CCC3(CC2)CCN(c2ccc([C@@H]5c6ccc(-c7cn[nH]c7)cc6CC[C@@H]5c5ccccc5)cc2)CC3)C4)C(=O)N1 (stereo partly drawn) [Compound B324, 2-(2,6-dioxopiperidin-3-yl)-6-(2-oxo-2-(9-(4-((1R,2S)-2-phenyl-6-(1H-pyrazol-4-yl)-1,2,3,4-tetrahydronaphthalen-1-yl)phenyl)-3,9-diazaspiro[5.5]undecan-3-yl)ethyl)-6,7-dihydropyrrolo[3,4-f]isoindole-1,3(2H,5H)-dione] |
| 10 to 100 | O=C1CCC(N2C(=O)c3cc4c(cc3C2=O)CN(CC(=O)N2CC3(C2)CN(c2ccc([C@@H]5c6ccc(O)cc6CC[C@@H]5c5ccccc5)cc2)C3)C4)C(=O)N1 (mixture of isomers) [Compound B4, 2-(2,6-dioxopiperidin-3-yl)-6-(2-(6-(4-((1R,2S)-6-hydroxy-2-phenyl-1,2,3,4-tetrahydronaphthalen-1-yl)phenyl)-2,6-diazaspiro[3.3]heptan-2-yl)-2-oxoethyl)-6,7-dihydropyrrolo[3,4-f]isoindole-1,3(2H,5H)-dione] |
| > 100 | O=C1CCC(N2C(=O)c3cc4c(cc3C2=O)CN(C(=O)CN2CCC3(CC2)CCN(c2ccc([C@@H]5c6ccc(O)cc6CC[C@@H]5c5ccccc5)cc2)CC3)CC4)C(=O)N1 (mixture of isomers) [Compound B190, 2-(2,6-dioxopiperidin-3-yl)-6-(2-(9-(4-((1R,2S)-6-hydroxy-2-phenyl-1,2,3,4-tetrahydronaphthalen-1-yl)phenyl)-3,9-diazaspiro[5.5]undecan-3-yl)acetyl)-5,6,7,8-tetrahydro-1H-pyrrolo[3,4-g]isoquinoline-1,3(2H)-dione] |
| > 100 | O=C1CCC(N2C(=O)c3cc4c(cc3C2=O)CN([C@H]2CC[C@H](NC3CCN(c5ccc([C@@H]6c7ccc(O)cc7CC[C@@H]6c6ccccc6)cc5)CC3)CC2)C4)C(=O)N1 (stereo partly drawn) [Compound B97, 2-(2,6-dioxopiperidin-3-yl)-6-((1R,4r)-4-((1-(4-((1R,2S)-6-hydroxy-2-phenyl-1,2,3,4-tetrahydronaphthalen-1-yl)phenyl)piperidin-4-yl)amino)cyclohexyl)-6,7-dihydropyrrolo[3,4-f]isoindole-1,3(2H,5H)-dione] |
| > 100 | O=C1CCC(N2C(=O)c3cc4c(cc3C2=O)CN(CC2CN(C(=O)C3CN(c5ccc([C@@H]6c7ccc(O)cc7CC[C@@H]6c6ccccc6)cc5)C3)C2)C4)C(=O)N1 (stereo partly drawn) [Compound B263, 2-(2,6-dioxopiperidin-3-yl)-6-((1-(1-(4-((1R,2S)-6-hydroxy-2-phenyl-1,2,3,4-tetrahydronaphthalen-1-yl)phenyl)azetidine-3-carbonyl)azetidin-3-yl)methyl)-6,7-dihydropyrrolo[3,4-f]isoindole-1,3(2H,5H)-dione] |
| > 100 | O=C1CCC(N2C(=O)c3cc4c(cc3C2=O)CN(CC2CCC3(CC2)CN(C(=O)c2ccc([C@@H]5c6ccc(O)cc6CC[C@@H]5c5ccccc5)cc2)C3)C4)C(=O)N1 (stereo partly drawn) [Compound B288, 2-(2,6-dioxopiperidin-3-yl)-6-((2-(4-((1R,2S)-6-hydroxy-2-phenyl-1,2,3,4-tetrahydronaphthalen-1-yl)benzoyl)-2-azaspiro[3.5]nonan-7-yl)methyl)-6,7-dihydropyrrolo[3,4-f]isoindole-1,3(2H,5H)-dione] |
| 10 to 100 | O=C1CCC(N2C(=O)c3cc4c(cc3C2=O)CN(C2CCN(CC3CCN(c5ccc([C@@H]6c7ccc(O)cc7CC[C@@H]6c6ccc(F)cc6)cc5)CC3)CC2)C4)C(=O)N1 (stereo partly drawn) [Compound B66, 2-(2,6-dioxopiperidin-3-yl)-6-(1-((1-(4-((1R,2S)-2-(4-fluorophenyl)-6-hydroxy-1,2,3,4-tetrahydronaphthalen-1-yl)phenyl)piperidin-4-yl)methyl)piperidin-4-yl)-6,7-dihydropyrrolo[3,4-f]isoindole-1,3(2H,5H)-dione] |
| 10 to 100 | O=C1CCC(N2C(=O)c3cc4c(cc3C2=O)CN(CC(=O)N2CCC3(CC2)CCN(c2ccc([C@@H]5c6ccc(O)cc6CC[C@@H]5c5ccc(F)cc5)cc2)C3)C4)C(=O)N1 (stereo partly drawn) [Compound B55, 2-(2,6-dioxopiperidin-3-yl)-6-(2-(2-(4-((1R,2S)-2-(4-fluorophenyl)-6-hydroxy-1,2,3,4-tetrahydronaphthalen-1-yl)phenyl)-2,8-diazaspiro[4.5]decan-8-yl)-2-oxoethyl)-6,7-dihydropyrrolo[3,4-f]isoindole-1,3(2H,5H)-dione] |
| > 100 | CC1(C(=O)N2CCC(N3Cc4cc5c(cc4C3)C(=O)N(C3CCC(=O)NC3=O)C5=O)CC2)CCN(c2ccc([C@@H]3c4ccc(O)cc4CC[C@@H]3c3ccccc3)cc2)CC1 (stereo partly drawn) [Compound B283, 2-(2,6-dioxopiperidin-3-yl)-6-(1-(1-(4-((1R,2S)-6-hydroxy-2-phenyl-1,2,3,4-tetrahydronaphthalen-1-yl)phenyl)-4-methylpiperidine-4-carbonyl)piperidin-4-yl)-6,7-dihydropyrrolo[3,4-f]isoindole-1,3(2H,5H)-dione] |
| > 100 | O=C1CCC(N2C(=O)c3cc4c(cc3C2=O)CN(C(=O)CN2CCC3(CC2)CCN(c2ccc([C@@H]5c6ccc(O)cc6CC[C@@H]5c5ccccc5)cc2)C3)C4)C(=O)N1 (mixture of isomers) [Compound B22, 2-(2,6-dioxopiperidin-3-yl)-6-(2-(2-(4-((1R,2S)-6-hydroxy-2-phenyl-1,2,3,4-tetrahydronaphthalen-1-yl)phenyl)-2,8-diazaspiro[4.5]decan-8-yl)acetyl)-6,7-dihydropyrrolo[3,4-f]isoindole-1,3(2H,5H)-dione] |
| 10 to 100 | O=C1CCC(N2C(=O)c3cc4c(cc3C2=O)CN(C2CCC(C(=O)N3CCCC(Oc5ccc([C@@H]6c7ccc(O)cc7CC[C@@H]6c6ccccc6)cc5)C3)CC2)C4)C(=O)N1 (mixture of isomers) [Compound B15, 2-(2,6-dioxopiperidin-3-yl)-6-(4-(3-(4-((1R,2S)-6-hydroxy-2-phenyl-1,2,3,4-tetrahydronaphthalen-1-yl)phenoxy)piperidine-1-carbonyl)cyclohexyl)-6,7-dihydropyrrolo[3,4-f]isoindole-1,3(2H,5H)-dione] |
| > 100 | CN(C1CCC(CN2Cc3cc4c(cc3C2)C(=O)N(C2CCC(=O)NC2=O)C4=O)CC1)C1CCN(c2ccc([C@@H]3c4ccc(O)cc4CC[C@@H]3c3ccccc3)cc2)CC1 (stereo partly drawn) [Compound B75, 2-(2,6-dioxopiperidin-3-yl)-6-((4-((1-(4-((1R,2S)-6-hydroxy-2-phenyl-1,2,3,4-tetrahydronaphthalen-1-yl)phenyl)piperidin-4-yl)(methyl)amino)cyclohexyl)methyl)-6,7-dihydropyrrolo[3,4-f]isoindole-1,3(2H,5H)-dione] |
| 10 to 100 | O=C1CCC(N2C(=O)c3cc4c(cc3C2=O)CN(CC2CCN(C(=O)C3CCN(c5ccc([C@@H]6c7ccc(O)cc7CC[C@@H]6c6ccccc6)cc5)CC3)CC2)C4)C(=O)N1 (mixture of isomers) [Compound B8, 2-(2,6-dioxopiperidin-3-yl)-6-((1-(1-(4-((1R,2S)-6-hydroxy-2-phenyl-1,2,3,4-tetrahydronaphthalen-1-yl)phenyl)piperidine-4-carbonyl)piperidin-4-yl)methyl)-6,7-dihydropyrrolo[3,4-f]isoindole-1,3(2H,5H)-dione] |
| 10 to 100 | O=C1CCC(N2C(=O)c3cc4c(cc3C2=O)CN(CCN2CCC3(CC2)CN(c2ccc([C@@H]5c6ccc(O)cc6CC[C@@H]5c5ccccc5)cc2)C3)C4)C(=O)N1 (mixture of isomers) [Compound B196, 2-(2,6-dioxopiperidin-3-yl)-6-(2-(2-(4-((1R,2S)-6-hydroxy-2-phenyl-1,2,3,4-tetrahydronaphthalen-1-yl)phenyl)-2,7-diazaspiro[3.5]nonan-7-yl)ethyl)-6,7-dihydropyrrolo[3,4-f]isoindole-1,3(2H,5H)-dione] |
| > 100 | O=C1CCC(N2C(=O)c3cc4c(cc3C2=O)CC2(C4)CN(CC(=O)N3CC(Oc4ccc([C@@H]5c6ccc(O)cc6CC[C@@H]5c5ccccc5)cc4)C3)C2)C(=O)N1 (stereo partly drawn) [Compound B300, 2′-(2,6-dioxopiperidin-3-yl)-1-(2-(3-(4-((1R,2S)-6-hydroxy-2-phenyl-1,2,3,4-tetrahydronaphthalen-1-yl)phenoxy)azetidin-1-yl)-2-oxoethyl)-5′,7′-dihydro-1'H-spiro[azetidine-3,6′-cyclopenta[f]isoindole]-1′,3′(2′H)-dione] |
| > 100 | O=C1CCC(N2C(=O)c3cc4c(cc3C2=O)CN(C(=O)C2CCC(CN3CCN(c5ccc([C@@H]6c7ccc(O)cc7CC[C@@H]6c6ccccc6)cc5)CC3)CC2)C4)C(=O)N1 (stereo partly drawn) [Compound B114, 2-(2,6-dioxopiperidin-3-yl)-6-(4-((4-(4-((1R,2S)-6-hydroxy-2-phenyl-1,2,3,4-tetrahydronaphthalen-1-yl)phenyl)piperazin-1-yl)methyl)cyclohexane-1-carbonyl)-6,7-dihydropyrrolo[3,4-f]isoindole-1,3(2H,5H)-dione] |
| 10 to 100 | O=C1CCC(N2C(=O)c3cc4c(cc3C2=O)CN(C2CCC(CN3CCN(c5ccc([C@@H]6c7ccc(O)cc7CC[C@@H]6c6ccccc6)cc5)CC3)CC2)C4)C(=O)N1 (stereo partly drawn) [Compound B76, 2-(2,6-dioxopiperidin-3-yl)-6-(4-((4-(4-((1R,2S)-6-hydroxy-2-phenyl-1,2,3,4-tetrahydronaphthalen-1-yl)phenyl)piperazin-1-yl)methyl)cyclohexyl)-6,7-dihydropyrrolo[3,4-f]isoindole-1,3(2H,5H)-dione] |

| Compound | DC50 [nM] |
| --- | --- |
| 3-(6-((1R,4r)-4-(3-((4-((1R,2S)-6-hydroxy-2-phenyl-1,2,3,4- tetrahydronaphthalen-1-yl)phenyl)amino)azetidin-1- yl)cyclohexane-1-carbonyl)-1-oxo-3,5,6,7- tetrahydropyrrolo[3,4-f]isoindol-2(1H)-yl)piperidine-2,6-dione [Compound B115] | > 100 |
| O=C1CCC(N2Cc3cc4c(cc3C2=O)CN(C(=O)C2CCC(CN3CC(Oc5ccc([C@@H]6c7ccc(O)cc7CC[C@@H]6c6ccccc6)cc5)C3)CC2)C4)C(=O)N1 (stereo partly drawn) [Compound B286, 3-(6-((1R,4r)-4-((3-(4-((1R,2S)-6-hydroxy-2-phenyl-1,2,3,4-tetrahydronaphthalen-1-yl)phenoxy)azetidin-1-yl)methyl)cyclohexane-1-carbonyl)-1-oxo-3,5,6,7-tetrahydropyrrolo[3,4-f]isoindol-2(1H)-yl)piperidine-2,6-dione] | > 100 |
